In US20110092544A1, “FUNGICIDAL PYRIDINES” (E.I. DU PONT DE nemours and company, priority 2008, published 2011):

Legend:
[1] = system: Erysiphe graminis f. sp. tritici; assay: Test A: wheat powdery mildew, preventive spray on wheat seedlings, visual disease rating; type: in vivo; conditions: for pest or weed control at 40 ppm / pest or weed control at 200 ppm: Blumeria graminis, 192 h
In short: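 Acetone/water (50/50) suspension with 250 ppm surfactant sprayed to run-off on wheat seedlings (200 ppm ≈ 500 g/ha); inoculated next day with E. graminis spore dust. Incubated 8 days at 20° C, then visually rated 0–100% disease control versus untreated controls; tests at 200 ppm or 40 ppm.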

[2] = system: Puccinia recondite f. sp. tritici; assay: Test B: wheat leaf rust, preventive spray on wheat seedlings, visual disease rating; type: in vivo; conditions: for pest or weed control at 40 ppm / pest or weed control at 200 ppm: 192 h
In short: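 Wheat seedlings were sprayed to run-off with compound suspension, 200 ppm (≈500 g/ha) or 40 ppm where marked, containing surfactant in acetone/water. Inoculation with Puccinia recondita spores followed one day later, then 24 h in saturated humidity at 20° C and 7 days at 20° C. Disease control was rated visually, 0–100% versus controls.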

Septoria tritici = assay: Test C: wheat leaf blotch, preventive spray on wheat seedlings, visual disease rating; type: in vivo; conditions: for pest or weed control at 40 ppm / pest or weed control at 200 ppm: Zymoseptoria tritici, 504 h
In short: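 Wheat seedlings sprayed to run-off with compound in acetone/water plus 250 ppm surfactant at 200 ppm (≈500 g/ha), or 40 ppm where marked; inoculated with Septoria tritici next day. Held saturated at 20 °C for 48 h, then 19 days at 20 °C; disease control rated visually 0–100 versus controls.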

Septoria nodorum = assay: Test D: wheat glume blotch, preventive spray on wheat seedlings, visual disease rating; type: in vivo; conditions: for pest or weed control at 40 ppm / pest or weed control at 200 ppm: Parastagonospora nodorum, 216 h
In short: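 Compounds in 3% acetone, then 50/50 acetone–water with 250 ppm Trem 014, sprayed to run-off at 200 ppm (500 g/ha; some at 40 ppm) one day before spore inoculation. Held 48 h saturated at 20 °C, then 7 days at 20 °C; visual rating as % disease control vs untreated (0–100).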

Alternaria solani = assay: Test E: tomato early blight, preventive spray on tomato seedlings, visual disease rating; type: in vivo; conditions: for pest or weed control at 40 ppm / pest or weed control at 200 ppm: Alternaria solani, 168 h
In short: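 Seedlings sprayed to run-off with compound in acetone/water plus 250 ppm Trem 014 (200 ppm ≈ 500 g/ha), inoculated with spores next day. Held 48 h saturated at 27 °C, then 5 days at 20 °C; visual rating 0–100% disease control relative to controls.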

Botrytis cinerea = assay: Test F: tomato botrytis, preventive spray on tomato seedlings, visual disease rating; type: in vivo; conditions: for pest or weed control at 40 ppm / pest or weed control at 200 ppm: Botrytis cinerea, 120 h
In short: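 Tomato seedlings sprayed to run-off with compound suspended in acetone/water (50/50) plus 250 ppm Trem 014, at 200 ppm (≈500 g/ha) or 40 ppm where marked. Inoculated next day with B. cinerea spores, 48 h saturated atmosphere at 20 °C, then 3 days at 24 °C. Visual rating, 0–100% disease control relative to controls.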

Rhizoctonia oryzae = assay: Test G: turf brown patch, preventive spray on creeping bent grass seedlings, visual disease rating; type: in vivo; conditions: for pest or weed control at 200 ppm: Waitea circinata, in Agrostis stolonifera, 120 h
From the text: General protocol for preparing test suspensions for Tests A-H: The test compounds were first dissolved in acetone in an amount equal to 3% of the final volume and then suspended at the desired concentration (in ppm) in acetone and purified water (50/50 mix) containing 250 ppm of the surfactant Trem® 014 (polyhydric alcohol esters). The resulting test suspensions were then used in tests A-H. Spraying a 200 ppm test suspension to the point of run-off on the test plants was the equivalent of a rate of 500 g/ha.
The test suspension was sprayed to the point of run-off on creeping bent grass seedlings. The following day the seedlings were inoculated with a spore suspension of Rhizoctonia oryzae (the causal agent of turf brown patch) and incubated in a saturated atmosphere at 27° C. for 48 h, and then moved to a growth chamber at 27° C. for 3 days, after which time disease ratings were visually made.
Results for Tests A-H are given in Table A. In the table, a rating of 100 indicates 100% disease control and a rating of 0 indicates no disease control (relative to the controls). A dash (-) indicates no test results. All results are for compounds tested at 200 ppm except where the compound number is followed by “*” which indicates the compound was tested at 40 ppm.

Plasmopara viticola = assay: Test H: grape downy mildew, spray after inoculation of grape seedlings, visual disease rating; type: in vivo
[3] = 40 ppm (compound number followed by *)
[4] = 200 ppm, 100 = 100% disease control, 0 = no control

Row | SMILES | pest or weed control at 40 ppm [1, 3] | pest or weed control at 40 ppm [2, 3] | pest or weed control at 40 ppm (Septoria tritici; [3]) | pest or weed control at 40 ppm (Septoria nodorum; [3]) | pest or weed control at 40 ppm (Alternaria solani; [3]) | pest or weed control at 40 ppm (Botrytis cinerea; [3]) | melting point | pest or weed control at 200 ppm [1, 4] | pest or weed control at 200 ppm [2, 4] | pest or weed control at 200 ppm (Septoria tritici; [4]) | pest or weed control at 200 ppm (Septoria nodorum; [4]) | pest or weed control at 200 ppm (Alternaria solani; [4]) | pest or weed control at 200 ppm (Botrytis cinerea; [4]) | further results
1 | COc1cc(OC)cc(-c2c(-c3ccccc3F)cnc(C)c2-c2c(F)cc(F)cc2F)c1 [Compound 89, 4-(3,5-dimethoxyphenyl)-5-(2-fluorophenyl)-2-methyl-3-(2,4,6-trifluorophenyl)pyridine] | 100% | 100% | 97% | 99% | 99% | 100% | 123 to 127 °C |  |  |  |  |  |  | 
2 | COc1cc(OC)cc(-c2c(C(C)(C)O)cnc(C)c2-c2c(F)cc(F)cc2F)c1 [Compound 44, 4-(3,5-dimethoxyphenyl)-α,α,6-trimethyl-5-(2,4,6-trifluorophenyl)-3-pyridinemethanol] |  |  |  |  |  |  | 166 to 167 °C | 99% | 100% | 100% | 99% | 100% | 99% | pest or weed control at 200 ppm (Rhizoctonia oryzae; [4]): 86%
3 | CCc1cnc(C)c(-c2c(F)cc(F)cc2F)c1-c1cc(OC)cc(OC)c1 [Compound 137, 4-(3,5-dimethoxyphenyl)-5-ethyl-2-methyl-3-(2,4,6-trifluorophenyl)pyridine] | 100% | 100% | 100% | 97% | 99% | 100% | 102 to 105 °C |  |  |  |  |  |  | 
4 | COc1cc(OC)c(Cl)c(-c2c(CC#N)cnc(C)c2-c2c(F)cc(F)cc2F)c1 [Compound 133, 4-(2-chloro-3,5-dimethoxyphenyl)-6-methyl-5-(2,4,6-trifluorophenyl)-3-pyridineacetonitrile] | 98% | 100% | 100% | 95% | 99% | 100% | 159 to 165 °C |  |  |  |  |  |  | 
5 | COc1cc(OC)cc(-c2c(CCl)cnc(C)c2-c2c(F)cc(F)cc2F)c1 [Compound 110, 5-(chloromethyl)-4-(3,5-dimethoxyphenyl)-2-methyl-3-(2,4,6-trifluorophenyl)pyridine] |  |  |  |  |  |  | 110 to 115 °C | 100% | 100% | 96% | 87% | 100% | 99% | 
6 | COc1cc(OC)cc(-c2c(CC#N)cnc(C)c2-c2c(F)cc(F)cc2F)c1 [Compound 124, 4-(3,5-dimethoxyphenyl)-6-methyl-5-(2,4,6-trifluorophenyl)-3-pyridineacetonitrile] | 100% | 100% | 99% | 100% | 100% | 100% | 131 to 133 °C |  |  |  |  |  |  | 
7 | CCOC(=O)c1cnc(C)c(-c2c(F)cc(F)cc2F)c1-c1cc(OC)cc(OC)c1 [Compound 130, ethyl 4-(3,5-dimethoxyphenyl)-6-methyl-5-(2,4,6-trifluorophenyl)-3-pyridinecarboxylate] |  |  |  |  |  |  | 93 to 95 °C | 100% | 93% |  | 0% | 99% | 100% | 
8 | COc1cc(OC)cc(-c2c(-c3ccccc3)c(C)[n+]([O-])c(C)c2-c2ccccc2F)c1 [Compound 24] |  |  |  |  |  |  |  |  |  |  |  |  |  | Test A rating (% disease control) [1, 3]: 91%; Test B rating (% disease control) [2, 3]: 95%; Test C rating (% disease control) (Septoria tritici; [3]): 97%; Test D rating (% disease control) (Septoria nodorum; [3]): 0%; Test E rating (% disease control) (Alternaria solani; [3]): 76%; Test F rating (% disease control) (Botrytis cinerea; [3]): 99%; Test G rating (% disease control) (Rhizoctonia oryzae; [3]): 0%; Test H rating (% disease control) (Plasmopara viticola; [3]): 0%
9 | COc1cc(OC)cc(-c2c(C(C)=O)cnc(C)c2-c2c(F)cc(F)cc2F)c1 [Compound 40, 1-[4-(3,5-dimethoxyphenyl)-6-methyl-5-(2,4,6-trifluorophenyl)-3-pyridinyl]ethanone] |  |  |  |  |  |  |  | 94% | 80% | 87% | 0% | 97% | 90% | pest or weed control at 200 ppm (Rhizoctonia oryzae; [4]): 49%; pest or weed control at 200 ppm (Plasmopara viticola; Plasmopara viticola, 192 h, 200 ppm, 100 = 100% disease control, 0 = no control): 0%
10 | CNC(=O)c1cnc(C)c(-c2ccccc2)c1-c1cc(OC)cc(OC)c1 [Compound 9] |  |  |  |  |  |  |  |  |  |  |  |  |  | Test A rating (% disease control) [1, 4]: 94%; Test B rating (% disease control) [2, 4]: 0%; Test C rating (% disease control) (Septoria tritici; [4]): 86%; Test D rating (% disease control) (Septoria nodorum; [4]): 0%; Test E rating (% disease control) (Alternaria solani; [4]): 99%; Test F rating (% disease control) (Botrytis cinerea; [4]): 37%; Test G rating (% disease control) (Rhizoctonia oryzae; [4]): 0%; Test H rating (% disease control) (Plasmopara viticola; [4]): 0%
